Values joined by “and” are separate entries in the source; they are usually repeats but may differ in a detail not shown here. Equal entries are not always repeated.
Test system: patients with refractory metastatic colorectal cancer (mCRC)
Assay: PFS, OS and disease control in the control cohort of refractory mCRC patients receiving regorafenib (n=52, Italy), by baseline characteristics and SNP genotype
Type: in vivo, human
Experimental: All patients underwent the treatment in salvage-line setting.
(§1) Patients in the control group received 160 mg regorafenib (Bayer, Leverkusen, Germany) once daily from day 1 to 21 every 4 weeks. Doses were adjusted based on haematological and non-haematological adverse events at the treating physician's discretion in accordance with the manufacturer's recommendations. The analyses were approved by the University of Southern California (USC) Institutional Review Board of Medical Sciences and conducted at the USC/Norris Comprehensive Cancer Center in accordance with the Declaration of Helsinki and Good Clinical Practice Guidelines.
(§2) Genomic DNA was extracted from peripheral whole blood in patients of all cohorts using the QIAmp Kit (Qiagen, Valencia, Calif., USA) according to the manufacturer's protocol (www.qiagen.com). The candidate SNPs were genotyped using PCR-based direct DNA sequence analysis by ABI 3100A Capillary Genetic Analyzer and Sequencing Scanner v1.0 (Applied Biosystems). Amplification of extracted DNA was carried out using both forward and reverse primers for each gene polymorphism as shown in Table 1. […] The investigators analyzing SNPs were blinded to the clinical data of the study patients.
The primary endpoint in this study was progression-free survival (PFS), and the secondary endpoints were overall survival (OS) and disease control rate (DCR). PFS was calculated from the date of starting treatment to the first observation of disease progression or death from any cause. If a patient had no disease progression or death, PFS was censored at the date of last follow up. OS was calculated from the date of starting treatment until the date of death from any cause or the date of the last follow-up, at which point OS was censored. The disease control rate (DCR) was defined as the proportion of patients who achieved a stable disease (SD) or […] according to RECISTv1.1. Chi-square test was used to examine the difference in baseline patient characteristics among the three cohorts. Allelic distribution of all SNPs by ethnicity for deviation from Hardy-Weinberg equilibrium and the allelic frequencies of SNPs were tested using the Chi-square tests with one degree of freedom. The associations between candidate SNPs and disease control, and toxicities were examined using contingency tables and Fisher's exact test. The associations of SNPs with PFS and OS were analysed using Kaplan-Meier curves and the log-rank test. Because the true mode of inheritance of candidate SNPs was not established yet, a codominant or dominant genetic model if appropriate was considered.
All patients underwent the treatment in salvage-line setting. […] In all patients, adverse events were graded according to the Common Terminology Criteria for Adverse Events, version 4.0.
as §1, with “events at treating physician's” for “events at the treating physician's”
as §2, with “tested” for “genotyped”, “Biosystems).” for “Biosystems). Amplification of extracted DNA was carried out using both forward and reverse primers for each gene polymorphism as shown in Table 1.”, “data.” for “data of the study patients.”
The primary endpoint in this study was progression-free survival (PFS), and the secondary endpoints were overall survival (OS) and disease control rate (DCR). […]

[1] = control cohort, OCT2 rs316019 C/A and A/A combined
[2] = control cohort, OCT2 rs316019 C/A and A/A combined vs C/C
[3] = control cohort, OCT2 rs316019 C/C
[4] = control cohort, adjusted for ECOG performance status and number of metastases
[5] = control cohort, hENT1 rs760370 A/A
[6] = control cohort, hENT1 rs760370 A/G
[7] = control cohort, hENT1 rs760370 A/G vs A/A
[8] = control cohort, hENT1 rs760370 Any G
[9] = control cohort, hENT1 rs760370 Any G vs A/A
[10] = control cohort, hENT1 rs760370 G/G
[11] = control cohort, hENT1 rs760370 G/G vs A/A
[12] = control cohort, hENT rs9394992 C/C
[13] = control cohort, hENT rs9394992 C/T
[14] = control cohort, hENT rs9394992 C/T and T/T combined
[15] = control cohort, hENT rs9394992 C/T and T/T combined vs C/C
[16] = control cohort, hENT rs9394992 T/T

SMILES: CNC(=O)c1cc(Oc2ccc(NC(=O)Nc3ccc(Cl)c(C(F)(F)F)c3)c(F)c2)ccn1 [regorafenib]
- Disease Control Rate SD (control cohort, OCT2 rs316019 C/A): 1 (14%)
- Overall Survival Median, months (95% CI) [1]: 5.3 (3.6, 9.6) months
- Progression-free Survival Median, months (95% CI) [1]: 1.8 (1.5, 2.0) months
- Overall Survival HR (95% CI) multivariate [2]: 0.90 (0.39, 2.09)
- Overall Survival HR (95% CI) univariate [2]: 0.79 (0.35, 1.75)
- Progression-free Survival HR (95% CI) multivariate [2]: 1.50 (0.62, 3.61)
- Progression-free Survival HR (95% CI) univariate [2]: 1.00 (0.44, 2.25)
- Disease Control Rate PD [3]: 25 (61%)
- Disease Control Rate SD [3]: 16 (39%)
- Overall Survival Median, months (95% CI) [3]: 3.3 (2.6, 7.9) months
- Progression-free Survival Median, months (95% CI) [3]: 2.1 (1.7, 3.2) months
- Overall Survival HR (95% CI) multivariate [4]: 0.80 (0.40, 1.61)
- Progression-free Survival HR (95% CI) multivariate [4]: 0.88 (0.45, 1.70)
- Disease Control Rate PD [5]: 15 (65%) and 13 (65%)
- Disease Control Rate SD [5]: 7 (35%)
- Overall Survival Median, months (95% CI) [5]: 5.9 (4.5, 8.0) months and 5.9 (4.5, 5.0) months
- Progression-free Survival Median, months (95% CI) [5]: 2.1 (1.8, 3.1) months
- Disease Control Rate PD [6]: 11 (61%)
- Disease Control Rate SD [6]: 7 (39%)
- Overall Survival Median, months (95% CI) [6]: 5.7 (2.0, 8.9) months
- Progression-free Survival Median, months (95% CI) [6]: 1.9 (1.6, 3.9) months
- Overall Survival HR (95% CI) multivariate [7]: 0.95 (0.50, 1.90)
- Overall Survival HR (95% CI) univariate [7]: 1.25 (0.67, 2.35)
- Progression-free Survival HR (95% CI) multivariate [7]: 1.08 (0.57, 2.08)
- Progression-free Survival HR (95% CI) univariate [7]: 1.26 (0.67, 2.37)
- Disease Control Rate PD [8]: 19 (66%)
- Disease Control Rate SD [8]: 10 (34%)
- Overall Survival Median, months (95% CI) [8]: 4.1 (2.2, 7.8 ) months
- Progression-free Survival Median, months (95% CI) [8]: 1.8 (1.5, 2.2) months
- Overall Survival HR (95% CI) multivariate [9]: 1.01 (0.55, 1.88)
- Overall Survival HR (95% CI) univariate [9]: 1.22 (0.70, 2.13)
- Progression-free Survival HR (95% CI) multivariate [9]: 1.15 (0.61, 2.15)
- Progression-free Survival HR (95% CI) univariate [9]: 1.25 (0.71, 2.20)
- Disease Control Rate SD [10]: 3 (27%)
- Overall Survival Median, months (95% CI) [10]: 2.4 (1.2, 9.1) months
- PD, patients n (%) [10]: 8 (73%)
- Progression-free Survival Median, months (95% CI) [10]: 1.4 (0.4, 4.3) months
- Overall Survival HR (95% CI) multivariate [11]: 1.11 (0.48, 2.56)
- Overall Survival HR (95% CI) univariate [11]: 1.17 (0.55, 2.46)
- Progression-free Survival HR (95% CI) multivariate [11]: 1.57 (0.57, 4.35)
- Progression-free Survival HR (95% CI) univariate [11]: 1.24 (0.59, 2.59)
- Disease Control Rate PD [12]: 14 (70%)
- Disease Control Rate SD [12]: 6 (30%)
- Overall Survival Median, months (95% CI) [12]: 4.4 (2.6, 6.0) months
- Progression-free Survival Median, months (95% CI) [12]: 2.0 (1.2, 2.7) months
- Disease Control Rate PD [13]: 16 (70%)
- Disease Control Rate SD [13]: 7 (30%)
- Overall Survival Median, months (95% CI) [14]: 7.7 (3.7, 8.9) months
- Progression-free Survival Median, months (95% CI) [14]: 1.9 (1.7, 3.9) months
- Overall Survival HR (95% CI) multivariate [15]: 0.64 (0.32, 1.30)
- Overall Survival HR (95% CI) univariate [15]: 0.57 (0.31, 1.05)
- Progression-free Survival HR (95% CI) multivariate [15]: 0.85 (0.46, 1.59)
- Progression-free Survival HR (95% CI) univariate [15]: 0.75 (0.42, 1.32)
- Disease Control Rate PD [16]: 2 (33%)
- Disease Control Rate SD [16]: 4 (67%)
- Progression-free Survival Median, months (95% CI) (control cohort, per OCT2 rs316000 genotype (row), OCT2 rs316000 Any A genotype): 1.8 (1.6, 2.8) months
- Progression-free Survival Median, months (95% CI) (control cohort, per OCT2 rs316000 genotype (row), OCT2 rs316000 G/G genotype): 2.1 (1.7, 3.1) months
- Median OS (whole control cohort): 5.3 months
- Median PFS (whole control cohort): 1.9 months
